Test results as given in US10294246B2, “Substituted boronic acids and boronate esters as immunoproteasome inhibitors” (MERCK PATENT GMBH, priority 2014, dated 2019).

Legend:
[1] = molecular target: human constitutive proteasome (Beta5) (Homo sapiens (Human), UniProt P28074); test: Determination of Beta5 activity (fluorescence intensity assay, Suc-LLVY-AMC); format: biochemical; settings: purified human constitutive proteasome 1.25 nM, Suc-LLVY-AMC 40 μM
Method in brief: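 Purified constitutive proteasome (1.25 nM) was preincubated with compounds 20 min at 25 °C in 50 mM Tris pH 7.4, 0.03% SDS, 1 mM EDTA, 1% DMSO. Suc-LLVY-AMC (40 μM) was then added for 60 min at 37 °C. AMC fluorescence was read at ex 350/em 450 nm.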

[2] = molecular target: human immunoproteasome (LMP7) (Homo sapiens (Human), UniProt P28062); test: Determination of LMP7 activity (fluorescence intensity assay, Suc-LLVY-AMC); format: biochemical; settings: for Selectivity LMP7 vs Beta5: LMP7 versus Beta5; for IC50: purified human immunoproteasome 0.25 nM, Suc-LLVY-AMC 40 μM
Method in brief: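 0.25 nM purified human immunoproteasome preincubated 20 min at 25 °C with serially diluted compounds in 50 mM Tris pH 7.4, 0.03% SDS, 1 mM EDTA, 1% DMSO. Reaction started with 40 μM Suc-LLVY-AMC, run 60 min at 37 °C. Fluorescence read at ex 350/em 450 nm.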

Compound: O=C(Cc1ncccc1C(=O)N1CCOCC1)N[C@@H](Cc1coc2ccccc12)B(O)O [Compound No. 119, [(1R)-2-(benzofuran-3-yl)-1-[[2-[3-(morpholine-4-carbonyl)-2-pyridyl]acetyl]amino]ethyl]boronic acid]
- IC50 [1]: 500 to 5000 nM
- Selectivity LMP7 vs Beta5 [2]: +++++ (Selectivity ≥ 100)
- IC50 [2]: < 50 nM

Compound: COc1ccc(CC(=O)N[C@@H](C[C@@H]2COc3c(OC)cccc32)B(O)O)cc1 [Compound No. 120, [(1R)-2-[(3S)-7-methoxy-2,3-dihydrobenzofuran-3-yl]-1-[[2-(4-methoxyphenyl)acetyl]amino]ethyl]boronic acid]
- IC50 [1]: 500 to 5000 nM
- Selectivity LMP7 vs Beta5 [2]: +++++ (Selectivity ≥ 100)
- IC50 [2]: < 50 nM

Compound: O=C(Cc1ccccc1)NC(Cc1coc2c(F)cccc12)B(O)O (stereo not drawn) [Compound No. 121, [2-(7-fluorobenzofuran-3-yl)-1-[(2-phenylacetyl)amino]ethyl]boronic acid]
- IC50 [1]: 500 to 5000 nM
- Selectivity LMP7 vs Beta5 [2]: +++++ (Selectivity ≥ 100)
- IC50 [2]: < 50 nM

Compound: N#Cc1cccc(CC(=O)N[C@@H](Cc2coc3ccccc23)B(O)O)c1 [Compound No. 123, [(1R)-2-(benzofuran-3-yl)-1-[[2-(3-cyanophenyl)acetyl]amino]ethyl]-boronic acid]
- IC50 [1]: 500 to 5000 nM
- Selectivity LMP7 vs Beta5 [2]: +++++ (Selectivity ≥ 100)
- IC50 [2]: < 50 nM

Compound: Cc1cccc2c1OC[C@H]2C[C@H](NC(=O)Cc1ccccc1)B(O)O [Compound No. 124, [(1R)-2-[(3S)-7-methyl-2,3-dihydrobenzofuran-3-yl]-1-[(2-phenylacetyl)amino]ethyl]boronic acid]
- IC50 [1]: > 5000 nM
- Selectivity LMP7 vs Beta5 [2]: +++++ (Selectivity ≥ 100)
- IC50 [2]: < 50 nM

Compound: O=C(Cc1ccccc1)N[C@@H](Cc1coc2c(F)cccc12)B(O)O [Compound No. 125, [(1R)-2-(7-fluorobenzofuran-3-yl)-1-[(2-phenylacetyl)amino]ethyl]-boronic acid]
- IC50 [1]: 50 to 500 nM
- Selectivity LMP7 vs Beta5 [2]: +++++ (Selectivity ≥ 100)
- IC50 [2]: < 50 nM

Compound: Cc1c(Cl)ccc2c(C[C@H](NC(=O)Cc3ccccc3)B(O)O)coc12 [Compound No. 126, [(1R)-2-(6-chloro-7-methyl-benzofuran-3-yl)-1-[(2-phenylacetyl)-amino]ethyl]boronic acid]
- IC50 [1]: 500 to 5000 nM
- Selectivity LMP7 vs Beta5 [2]: +++++ (Selectivity ≥ 100)
- IC50 [2]: < 50 nM

Compound: Cc1cccc2c1OC[C@@H]2C[C@H](NC(=O)Cc1ccccc1)B(O)O [Compound No. 127, [(1R)-2-[(3R)-7-methyl-2,3-dihydrobenzofuran-3-yl]-1-[(2-phenylacetyl)amino]ethyl]boronic acid]
- IC50 [1]: > 5000 nM
- Selectivity LMP7 vs Beta5 [2]: ++ (10 ≤ Selectivity < 50)
- IC50 [2]: 500 to 5000 nM

Compound: Cc1ccc(C)c2c(C[C@H](NC(=O)Cc3ccccc3)B(O)O)coc12 [Compound No. 128, [(1R)-2-(4,7-dimethylbenzofuran-3-yl)-1-[(2-phenylacetyl)-amino]ethyl]boronic acid]
- IC50 [1]: > 5000 nM
- Selectivity LMP7 vs Beta5 [2]: +++++ (Selectivity ≥ 100)
- IC50 [2]: < 50 nM

Compound: COc1ccc(CC(=O)N[C@@H](Cc2coc3c(C)ccc(C)c23)B(O)O)cc1 [Compound No. 129, [(1R)-2-(4,7-dimethylbenzofuran-3-yl)-1-[[2-(4-methoxyphenyl)-acetyl]amino]ethyl]boronic acid]
- IC50 [1]: 500 to 5000 nM
- Selectivity LMP7 vs Beta5 [2]: +++++ (Selectivity ≥ 100)
- IC50 [2]: < 50 nM

Compound: Cc1cccc2c1OC[C@H]2C[C@H](NC(=O)Cc1ccccc1C#N)B(O)O [Compound No. 130, [(1R)-1-[[2-(2-cyanophenyl)acetyl]amino]-2-[(3S)-7-methyl-2,3-dihydrobenzofuran-3-yl]ethyl]boronic acid]
- IC50 [1]: > 5000 nM
- Selectivity LMP7 vs Beta5 [2]: +++++ (Selectivity ≥ 100)
- IC50 [2]: < 50 nM
